In ChEMBL document CHEMBL1155779, “Characterization of the PON1 active site using modeling simulation, in relation to PON1 lactonase activity” (Bioorg Med Chem, 2008):

Molecular target: Serum paraoxonase/arylesterase 1 (Homo sapiens) (UniProt P27169)
Experiment: Activity at human recombinant PON1 assessed as hydrolysis of lactone ring at 1 mM by Ellman's method

Sequence of Serum paraoxonase/arylesterase 1 (Homo sapiens) (P27169 whole entry): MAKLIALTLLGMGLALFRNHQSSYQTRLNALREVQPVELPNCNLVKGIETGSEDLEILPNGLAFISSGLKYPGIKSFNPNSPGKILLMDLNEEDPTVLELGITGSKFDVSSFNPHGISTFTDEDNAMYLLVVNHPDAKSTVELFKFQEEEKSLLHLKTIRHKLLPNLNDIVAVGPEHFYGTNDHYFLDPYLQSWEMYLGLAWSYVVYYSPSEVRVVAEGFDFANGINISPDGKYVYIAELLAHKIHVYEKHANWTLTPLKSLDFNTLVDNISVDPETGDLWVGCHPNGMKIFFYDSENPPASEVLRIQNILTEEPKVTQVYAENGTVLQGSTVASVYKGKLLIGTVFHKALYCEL

| Structure (SMILES) | Activity [µmol/min/mg] |
| --- | --- |
| CC1=CCC(=O)O1 | 18.3 |
| O=C1Cc2cc(O)ccc2O1 | 33 |
| C[C@H]1CC(=O)O1 | 3.83 |
| O=C(O)Cc1ccccc1 | 112 |
| O=C1Cc2ccccc2O1 | 13.6 |

Second part, the compound after the results:

| Activity [µmol/min/mg] | Structure (SMILES) |
| --- | --- |
| 0.83 | O=C1C[C@H]2C=CC[C@H]2O1 |
| 1.67 | O=C1C[C@@H]2C=CC[C@@H]2O1 |
